Data reported in US20010041708A1, “Compositions for preventing cellulite in mammalian skin” (Zen-Bio, Inc., priority 2000, published 2001).

Key:
[1] = system: 3T3-L1 adipocyte cell line; assay: Lipolysis of triglycerides (glycerol release) in 3T3-L1 adipocyte cell line; assay type: cell-based, rodent
[2] = system: stromal vascular (SV) cells from human adipose tissue; assay: Triglyceride (TG) content of differentiating primary cultures of SV cells; assay type: cell-based; conditions: day 11
Experimental: Abdominal adipose tissue (Exp. 1-5) and thigh adipose tissue (Exp. 5b) were obtained from middle-aged females with body mass indexes <30.0 during liposuction or elective surgery. Subsequently, tissue was minced and enzymatically digested for 45 min in a Krebs-Ringer buffer containing 1 mg/mL collagenase (CLS-1, Worthington Biochemical Corp, Lakewood, N.J.), 15 mg/mL bovine serum albumin (BSA), 5 mM glucose and 100 mM HEPES (pH 7.4). Digestion was carried out at a 5 mL/1 g ratio (digestion solution: tissue mass). The digesta was then filtered through 200- and 60-micron mesh and pelleted at 600×g for 5 min. The SV cells were resuspended in a RBC lysis buffer for 10 min and then filtered and recentrifuged to remove contaminating […]. Cultures of SV cells were grown in proliferation medium containing 90% DME/Ham's F-10 (1:1, v/v), 10% (v/v) fetal bovine serum (FBS), 15 mM HEPES (pH 7.4), 60 U/mL penicillin, 60 U/mL streptomycin, and 25 ug/mL fungizone. Cultures were incubated at 37° C. in a humidified […]:CO2 (90:10%) atmosphere. SV cells were grown to 80% confluency and then cryopreserved in liquid nitrogen in aliquots (2×10^6 cells/mL).
Cryopreserved aliquots were subsequently thawed, seeded in T-150 flasks (e.g., 1 vial per 2 T-150 flasks), and grown in proliferation media until 80% confluent. At this time the cells were removed via trypsinization, seeded (3×10^4/cm^2, except for Exp. 1) in 24-well or 96-well (Exp. 5b) Falcon dishes, and allowed to attach for 24 h in proliferation medium. Following attachment, cultures were grown in differentiation medium for the next 3 d which contained DME/Ham's F-10 (1:1,v/v), 15 mM HEPES (pH 7.4), 33 uM biotin, 17 uM pantothenate, 100 nM human insulin, 1 uM dexamethasone (DEX), 60 U/mL penicillin, 60 U/mL streptomycin, 25 ug/mL fungizone, 0.25 mM isobutylmethylxanthine (IBMX), and TZD (Exp. 1 & 2=BRL 49653; Exp. 3-5=Zen Bio's proprietary reagent). Thereafter, cultures were exposed to adipocyte medium consisting of 90% DME/Ham's F-10 (1:1,v/v), 15 mM HEPES (pH 7.4), 3% FBS (v/v), 33 uM biotin, 17 uM pantothenate, 100 nM human insulin, 1 uM DEX, 60 U/mL penicillin, 60 U/mL streptomycin, and 25 ug/mL fungizone. Adipocyte media was replaced every 3 d. […] After 18 day in culture, the majority of the cells contained visual lipid droplets.
Experiment 1 was designed to determine optimal culturing conditions during differentiation of primary cultures of SV cells isolated from human adipose tissue. Specifically, the experiment was designed to determine how seeding density and thiazolidinedione (TZD; PPARγ-agonist BRL 49653) concentration influenced TG content (ug/10^6cells). SV cells were seeded at increasing densities (2-, 3-, or 4×10^4/cm^2) in differentiation media containing 0, 1, or 10 uM TZD (BRL 49653) in this 3×3 factorial design. All cultures received the same adipocyte media after 3 d of differentiation. The cultures were harvested on day 11-12 of differentiation and TG content and cell number were measured. Another set of cultures was stained with Oil Red O and counterstained with Mayer's hematoxylin to assess cellular differentiation potential (n=3 per treatment combination).
In Experiment 2 the impact of linoleic acid and the trans-10, cis-12 isomer of CLA on TG accumulation in these cells was examined. SV cells were seeded at a density of 3×10^4/cm^2 and continuously treated with either 10 uM linoleic acid, 100 uM linoleic acid, 10 uM trans-10, cis-12 CLA, or 100 uM trans-10, cis-12 CLA, and grown under our normal differentiation protocol. One set of control cultures contained only vehicle (BSA) and another contained vehicle plus TZD (BRL 49653). TG content and cell number were measured on day 11 of differentiation.
The objective of Experiment 3 was to evaluate the dose response of trans-10, cis-12 CLA, cis-9, trans-11 CLA, and linoleic acid on TG content of the cultures. […]

3T3-L1 preadipocytes [3] = assay: TG content of 3T3-L1 preadipocytes; assay type: cell-based, murine
[4] = system: stromal vascular (SV) cells from human adipose tissue; assay: De novo lipogenesis (14C-glucose incorporation into cellular lipid); assay type: cell-based; conditions: Exp. 5a
Experimental: Experiments 5a and 5b were designed to determine if the trans-10, cis-12 CLA-mediated reduction in TG content was due to decreased lipogenesis and/or increased lipolysis. In Experiment 5a (lipogenesis), SV cells were seeded at a density of 3×10^4/cm^2 and continuously treated with increasing concentrations (3, 10, or 30 uM) of either linoleic acid, cis-9, tran-11 CLA, or trans-10, cis-12 CLA. A set of control cultures received vehicle (BSA) plus TZD. All cultures received differentiation media (days 1-3), adipocyte media (days 4-9), and low-glucose (˜5 mM) adipocyte media (days 10-12) prior to measuring de novo lipogenesis. On day 12, ^14C-labeled glucose incorporation into the lipid fraction of the cultures was measured for 2 h and, following lipid extraction, the radioactivity in the lipid fraction was determined by scintillation counting. Time course data (not shown) indicated a linear increase in radiolabeled glucose incorporation into lipid over 2 h.
Incorporation of ^14C-glucose into cellular lipid was determined on day 12 of differentiation in cultures chronically treated with fatty acids or vehicle. Following the addition of fatty acids and low glucose (˜5 mM) medium to the cultures on day 12, 1.0 μCi [U-^14C]-glucose ([U-^14C]-D-glucose; SA ˜250 mCi/mmol, ICN, Costa Mesa, Calif.)/mL medium was added to the cultures for 2 h. Our time course study (data not shown) indicated a linear increase in radiolabeled glucose incorporation into lipid over a 2 h period. After 2 h, media containing unincorporated ^14C-glucose was immediately removed and the cultures were washed with 1 mL HBSS to remove unincorporated ^14C-glucose. An additional 1 mL of HBSS was added and, after vigorous tritaration, cells were transferred to glass vials. Five milliliters of a chloroform:methanol (2:1) solution was added to each vial and they were vortexed for 1 min. All samples were then centrifuged for 5 min at 1000×g to further separate the hydrophobic and hydrophilic phases. The lower hydrophobic phase was removed from the tubes and dried under nitrogen at 40° C. Five milliliters of scintillation cocktail (Scinti Verse, Fisher Scientific, Norcross, Ga.) was added to each sample, and the ^14C content was determined by liquid scintillation counting on a Beckman LS 6000 Scintillation Counter (Beckman Instruments, Palo Atlo, Calif.). […] The radioactivity in the lipid fraction from these cultures was subtracted from the total counts. Cell numbers were determined from parallel treatment groups in separate culture dishes at the time of radioisotope addition to the medium. Therefore, mean ^14C-glucose incorporation is expressed as cpm/10^6 cells.

aP2 = aP2 protein expression in 3T3-L1 preadipocytes; assay type: cell-based, murine
PPARγ2 = PPARγ2 protein expression in 3T3-L1 preadipocytes; assay type: cell-based, murine
3T3-L1 preadipocytes [5] = assay: Fatty acid composition of neutral and phospholipid fractions of treated cultures; assay type: cell-based, murine

CCCCC/C=C\C=C\CCCCCCCCC(=O)O [trans-10, cis-12 CLA, 10-trans, 12-cis conjugated linoleic acid]
Glycerol release by the cells [1]: increased glycerol release
Less TG (ug/10^6 cells) than TZD-supplemented vehicle control cultures ([2]; Exp. 2, 10 uM, continuous treatment): 76%
TG content vs other treatments / TZD treated vehicle controls ([2]; Exp. 2, 100 uM, continuous treatment): not significantly different
TG content vs TZD treated vehicle controls ([2]; Exp. 3, 30 uM): not significantly different
TG content, dose response ([2]; Exp. 3, 1-10 uM): decreased
Less TG content compared to TZD treated vehicle controls ([2]; Exp. 4, 10 uM alone): approximately 60%
TG content, treatment during only the first 3 d of differentiation (3T3-L1 preadipocytes [3]): not sufficient to lower TG concentrations
Triglyceride content in 3T3-L1 adipocyte cells (3T3-L1 preadipocytes [3]; 3T3-L1 adipocyte cell line): decreasing triglyceride content
TG-lowering effect (3T3-L1 preadipocytes [3]; 3T3-L1 preadipocytes): responsible for the TG-lowering effects
TG content, treatment during entire period of differentiation (3T3-L1 preadipocytes [3]; vs treatment during last 3 d): reduced TG content to a greater extent than treatment during the last 3 d of differentiation
Less 14C-glucose incorporated into cellular lipid compared to TZD treated vehicle controls ([4]; 30 uM, day 12, 2 h): 80%
Incorporation of 14C-glucose into cellular lipid per 10^6 cells, dose response ([4]; 3, 10, 30 uM, day 12): decreased
aP2 protein expression (aP2; after 6 d of treatment): decreased
aP2 protein expression (aP2; day 2 or 4 of differentiation): did not affect aP2 protein expression
PPARγ2 protein expression (PPARγ2; after 6 d of treatment): decreased
PPARγ2 protein expression compared to BSA controls (PPARγ2; day 2 of differentiation): increased PPARγ2 expression
PPARγ2 protein expression (PPARγ2; day 4 of differentiation): no effect on PPARγ2 protein expression
Amount of cis-9 oleic acid (3T3-L1 preadipocytes [5]): increased
Level of linoleic acid (18:2) (3T3-L1 preadipocytes [5]): increased
Amount of cis-11 oleic acid (18:1) compared to BSA controls (3T3-L1 preadipocytes [5]; 50 uM, neutral and polar lipid fractions): lower amounts
Amount of palmitoleic acid (16:1) compared to BSA controls (3T3-L1 preadipocytes [5]; 50 uM, neutral lipid fraction): lower amounts
Arachidonic acid (AA) in the phospholipid fraction (3T3-L1 preadipocytes [5]; increasing level in culture): dose-dependent increase
Incorporation into cellular lipid fractions (3T3-L1 preadipocytes [5]; neutral and phospholipid fractions): incorporated into the neutral and phospholipid fractions
